Source: patent US12060400B2, “Peptides for use in immunotherapy against cancers” (Immatics Biotechnologies GmbH, priority 2018, dated 2024)

Each substance was assayed on HLA-A*24 (assay: MHC binding assay: UV-ligand exchange with beta2m ELISA (peptide exchange yield)). Conditions: Table 11, binding to HLA-A*24, UV-ligand exchange.
Parameters: species or system human
Procedure, shortened: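 Peptide-MHC complexes generated by UV-induced exchange of a photocleavable ligand with the test peptide; exchange yield quantified by streptavidin-capture ELISA detecting β2m (HRP anti-β2m, TMB, A450). Samples diluted 100-fold, with refolded HLA-A*02:01/MLA-001 monomers (15-500 ng/ml) as standards.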

Substance | Peptide exchange (MHC class I binding score, peptide exchange yield)
46 (IYPDSIQEL; listed as Homo sapiens) [compound 46] | +++ (>50 = +++)
169 (MYDLHHLYL; listed as Homo sapiens) [compound 169] | ++++ (>75% = ++++)
133 (FFYVTETTF; listed as Homo sapiens) [compound 133] | ++++ (>75% = ++++)
150 (FIPVAWLIF; listed as Homo sapiens) [compound 150] | +++ (>50 = +++)
28 (FWFDSREISF; listed as Homo sapiens) [compound 28] | ++++ (>75% = ++++)
183 (YQVAKGMEF; listed as Homo sapiens) [compound 183] | + (>10% = +)
232 (IWPGFTTSI; listed as Homo sapiens) [compound 232] | ++++ (>75% = ++++)
113 (ALMSAFYTF; listed as Homo sapiens) [compound 113] | ++++ (>75% = ++++)
333 (RYADLLIYTY; listed as Homo sapiens) [compound 333] | ++++ (>75% = ++++)
345 (RYLEEHTEF; listed as Homo sapiens) [compound 345] | ++++ (>75% = ++++)
274 (EYSLPVLTF; listed as Homo sapiens) [compound 274] | +++ (>50 = +++)
255 (VYLDEKQHAW; listed as Homo sapiens) [compound 255] | ++++ (>75% = ++++)
140 (IFQHFCEEI; listed as Homo sapiens) [compound 140] | ++ (>20% = ++)
312 (YLCMLYALF; listed as Homo sapiens) [compound 312] | ++ (>20% = ++)
267 (QHMLPFWTDL; listed as Homo sapiens) [compound 267] | +++ (>50 = +++)
75 (VYEHNHVSL; listed as Homo sapiens) [compound 75] | +++ (>50 = +++)
92 (RALTETIMF; listed as Homo sapiens) [compound 92] | ++ (>20% = ++)
103 (EMFFSPQVF; listed as Homo sapiens) [compound 103] | ++ (>20% = ++)
62 (VYIVPVIVL; listed as Homo sapiens) [compound 62] | ++++ (>75% = ++++)
20 (ELMAHPFLL; listed as Homo sapiens) [compound 20] | ++ (>20% = ++)
259 (FFLFIPFF; listed as Homo sapiens) [compound 259] | ++ (>20% = ++)
206 (EVVHTVFLF; listed as Homo sapiens) [compound 206] | ++ (>20% = ++)
124 (EYNVFPRTL; listed as Homo sapiens) [compound 124] | ++ (>20% = ++)
359 (TQLPAPLRI; listed as Homo sapiens) [compound 359] | ++ (>20% = ++)
172 (RYFIAAEKILW; listed as Homo sapiens) [compound 172] | ++++ (>75% = ++++)
318 (VQADAKLLF; listed as Homo sapiens) [compound 318] | + (>10% = +)
321 (VYTVGHNLI; listed as Homo sapiens) [compound 321] | ++++ (>75% = ++++)
209 (DIYVTGGHLF; listed as Homo sapiens) [compound 209] | +++ (>50 = +++)
325 (IFMGAVPTL; listed as Homo sapiens) [compound 325] | ++++ (>75% = ++++)

The remaining lines, values ahead:

Peptide exchange (MHC class I binding score, peptide exchange yield) | Substance
++++ (>75% = ++++) | 68 (VYKEDLPQL; listed as Homo sapiens) [compound 68]
++++ (>75% = ++++) | 375 (YYAADQWVF; listed as Homo sapiens) [compound 375]
++++ (>75% = ++++) | 142 (PYWWNANMVF; listed as Homo sapiens) [compound 142]
+++ (>50 = +++) | 114 (KALMSAFYTF; listed as Homo sapiens) [compound 114]
++++ (>75% = ++++) | 123 (FFLQESPVF; listed as Homo sapiens) [compound 123]
++++ (>75% = ++++) | 163 (YYIGIVEEYW; listed as Homo sapiens) [compound 163]
++++ (>75% = ++++) | 14 (YYIATMALI; listed as Homo sapiens) [compound 14]
++ (>20% = ++) | 280 (TIYSLEMKMSF; listed as Homo sapiens) [compound 280]
++++ (>75% = ++++) | 207 (IYKFIMDRF; listed as Homo sapiens) [compound 207]
++++ (>75% = ++++) | 331 (EYIDEFQSL; listed as Homo sapiens) [compound 331]
++ (>20% = ++) | 99 (ASAALTGFTF; listed as Homo sapiens) [compound 99]
++ (>20% = ++) | 108 (WFFQGAQYW; listed as Homo sapiens) [compound 108]
++++ (>75% = ++++) | 372 (LYHNWRHAF; listed as Homo sapiens) [compound 372]
+++ (>50 = +++) | 179 (MYNMVPFF; listed as Homo sapiens) [compound 179]
+++ (>50 = +++) | 191 (MSYSCGLPSL; listed as Homo sapiens) [compound 191]
+++ (>50 = +++) | 464 (VGGNVTSSF; listed as Homo sapiens) [compound 464]
+++ (>50 = +++) | 225 (ISMSATEFLL; listed as Homo sapiens) [compound 225]
+ (>10% = +) | 156 (IYPHGVTFSP; listed as Homo sapiens) [compound 156]
++++ (>75% = ++++) | 230 (RWLSKPSLL; listed as Homo sapiens) [compound 230]
+ (>10% = +) | 240 (RVHANPLLI; listed as Homo sapiens) [compound 240]
++++ (>75% = ++++) | 360 (LYITKVTTI; listed as Homo sapiens) [compound 360]
++++ (>75% = ++++) | 263 (AYVTEFVSL; listed as Homo sapiens) [compound 263]
++++ (>75% = ++++) | 33 (FYQPDLKYLSF; listed as Homo sapiens) [compound 33]
++++ (>75% = ++++) | 205 (ISWEVVHTVF; listed as Homo sapiens) [compound 205]
++ (>20% = ++) | 291 (YTRLVLQF; listed as Homo sapiens) [compound 291]
++++ (>75% = ++++) | 85 (KYLSIPTVFF; listed as Homo sapiens) [compound 85]
++++ (>75% = ++++) | 71 (RYLPNPSLNAF; listed as Homo sapiens) [compound 71]
